{
  "source": "patent US4889860A",
  "about": "(Nova Pharmaceutical Corporation, priority 1987, dated 1989)",
  "key": {"[1]": {"assay": "food intake in 24 hr food-deprived rats", "assay_type": "in vivo, rat", "conditions": "for Food Intake in Grams: Table 3, 24 hr; for Cumulative Food Intake in Grams: Table 4", "procedure": "Rats were given water and powdered food ad lib for 8 days until food intake had stabilized, and body weight and food and water intakes were recorded at the same time every day. Animals were assigned to treatment groups matched on the basis of their 24 hr food consumption on the last baseline day, and rats were food deprived for 24 hr immediately before injection of the test compound. […] The compound of Example XII was injected S.C. at doses of 1.15, 2.31, 11.55 and 23.09 μmol/kg, in a volume of 4 ml/kg of 0.3% acetic acid. Controls were injected with the vehicle solutions in the appropriate volumes. Food and water intakes were measured at 1, 3 and 24 hr after treatment. Data for each measure and time point were analyzed by one-way analysis of variance (ANOVA), and post-hoc comparisons were performed using Dunnett's test in order to compare the control mean to each of the treatment means.\nRats were given water and powdered food for 8 days, and following this,\nTesting was performed as described above, and baseline measurements were recorded for 7 days. […] The compound of Example XII was injected at doses of 11.55, 23.09, 46.19 and 92.38 μmol/kg by suspension in a solution of 1:1 DMSO:water in a volume of 3 ml/kg. Food and water intakes were recorded at 1, 2, 4 and 6 h following treatment.\nSee Table 3 for experimental details, except that baseline measures were […]"}, "[2]": {"molecular_target": "delta-type opioid receptor (Rattus norvegicus, UniProt P33533)", "sequence (P33533 whole entry)": "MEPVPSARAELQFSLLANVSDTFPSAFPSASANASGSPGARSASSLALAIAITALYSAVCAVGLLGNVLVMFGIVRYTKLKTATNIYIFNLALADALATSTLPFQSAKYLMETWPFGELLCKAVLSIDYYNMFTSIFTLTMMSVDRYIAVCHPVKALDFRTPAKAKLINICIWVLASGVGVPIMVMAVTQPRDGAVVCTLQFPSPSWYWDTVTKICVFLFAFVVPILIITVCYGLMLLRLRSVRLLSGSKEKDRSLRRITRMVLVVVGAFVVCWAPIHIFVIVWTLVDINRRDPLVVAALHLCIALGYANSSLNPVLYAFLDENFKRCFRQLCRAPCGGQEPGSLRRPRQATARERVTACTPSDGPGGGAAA", "assay": "inhibition of specific [^3 H] DADLE binding to rat forebrain membranes"}, "[3]": {"molecular_target": "T1, kappa-type opioid receptor (Cavia porcellus, UniProt P41144)", "T1 construct": "using guiniea pig cerebellum membrane; from tissue; host or cells: guinea pig cerebellum membranes", "T1 sequence (P41144 whole entry)": "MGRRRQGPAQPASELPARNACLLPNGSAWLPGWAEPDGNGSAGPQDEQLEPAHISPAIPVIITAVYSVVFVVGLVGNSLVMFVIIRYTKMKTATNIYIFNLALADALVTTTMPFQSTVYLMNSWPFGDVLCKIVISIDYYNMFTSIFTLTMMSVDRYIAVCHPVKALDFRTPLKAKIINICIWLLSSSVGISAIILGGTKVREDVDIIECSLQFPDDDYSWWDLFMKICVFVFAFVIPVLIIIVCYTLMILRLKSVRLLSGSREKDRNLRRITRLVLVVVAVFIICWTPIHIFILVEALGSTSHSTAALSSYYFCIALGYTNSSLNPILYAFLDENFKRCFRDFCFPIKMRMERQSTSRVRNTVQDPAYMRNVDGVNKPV", "assay": "inhibition of specific [^3 H] EKC binding to guinea pig cerebellum membrane"}, "[4]": {"assay": "conditioned taste aversion in rats", "assay_type": "in vivo, rat", "conditions": "for conditioned taste aversion (milk intake, preference ratio): I.P., day 10", "procedure": "The ability of a compound to inhibit feeding may not be related to its anorectic properties, but rather to the ability of that compound to produce a conditioned taste aversion. This possibility was tested in the following experiment. Animals were adapted to water deprivation by restricting their access to water to a single 30 min presentation occurring at the same time every day. Baseline water intakes were determined for 7 days until intakes had stabilized, and animals were assigned to treatment groups based on their intakes on the final baseline day. On the following day (day 8), all rats received a bottle of condensed milk (diluted 2:1 water:milk) in place of the water, and intakes were recorded for 30 min. Fifteen minutes after the milk was removed, rats were administered an I.P. injection of vehicles, LiCl (299.6 μmol/kg) or the compound of Example XII (1.15, 2.31, 11.55 and 23.09 μmol/kg). The compound of Example XII was dissolved in 0.3% acetic acid in a volume of 4 ml/kg. LiCl was dissolved in saline, and serves as a positive control, since it is a compound that reliably produces a strong conditioned taste aversion. This procedure was repeated on day 9. On day 10, all rats were given a two-bottle choice of water or the milk:water solution, and intakes were recorded for 30 min. Data for each experiment were analyzed by one-way ANOVA, and post-hoc comparisons were performed using Dunnett's test.\nThe effects of the compound of Example XII in producing a conditioned taste aversion are illustrated in FIGS. 28 and 29. In FIGS. 28 and 29 the data represent the mean ±SEM for each group. **=p<0.01 (Dunnett's test). Abbreviations: SAL, saline; AA, 0.3% acetic acid in distilled water; LiCl, lithium chloride. Doses of the compound of Example XII for each group are expressed in μmole/kg. The number of animals per group: SAL, 4: AA, LiCl and each dose of Example XII, 5. FIG. 28: Total milk intake in ml on day 10. FIG. 29: Preference ratio on day 10."}, "mu-type opioid receptor": {"molecular_target": "T2, mu-type opioid receptor (Rattus norvegicus, UniProt P33535)", "T2 construct": "using rat forebrain membranes; from tissue; host or cells: rat forebrain membranes", "T2 sequence (P33535 whole entry)": "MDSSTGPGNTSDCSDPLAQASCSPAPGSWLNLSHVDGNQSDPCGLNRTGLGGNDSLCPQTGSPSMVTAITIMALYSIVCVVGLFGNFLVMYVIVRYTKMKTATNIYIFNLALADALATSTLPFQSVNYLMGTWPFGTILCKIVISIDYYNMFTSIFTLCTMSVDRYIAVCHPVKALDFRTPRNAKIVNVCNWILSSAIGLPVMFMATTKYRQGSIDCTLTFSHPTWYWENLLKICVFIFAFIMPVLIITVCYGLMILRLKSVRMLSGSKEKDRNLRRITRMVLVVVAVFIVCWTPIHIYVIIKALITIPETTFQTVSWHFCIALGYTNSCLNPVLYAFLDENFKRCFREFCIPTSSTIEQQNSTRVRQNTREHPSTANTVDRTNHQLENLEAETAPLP", "assay": "inhibition of specific [^3 H] DAGO binding to rat forebrain membranes"}},
  "note": "Like-named read-outs stand apart in the source and are kept apart here.",
  "data": [
    {"smiles": "Oc1ccc2c3c1O[C@H]1C(=NOc4ccccc4)CC[C@@]4(O)[C@@H](C2)N(CC2CC2)CC[C@]314", "note": "[Example XII, 6-Phenyloximino-17-cyclopropylmethyl-4,5 α-epoxy-3, 14-dihydroxymorphinan]", "values": [
      {"measurement": "Food Intake in Grams", "setting": "[1]; S.C. 1.15 μmol/kg", "result": "33.3 ± 1.6", "unit": "Grams"},
      {"measurement": "Food Intake in Grams", "setting": "[1]; S.C. 2.31 μmol/kg", "result": "31.0 ± 2.0", "unit": "Grams"},
      {"measurement": "Food Intake in Grams", "setting": "[1]; S.C. 11.55 μmol/kg", "result": "41.7 ± 7.4", "unit": "Grams"},
      {"measurement": "Food Intake in Grams", "setting": "[1]; S.C. 23.09 μmol/kg", "result": "37.6 ± 5.6", "unit": "Grams"},
      {"measurement": "Cumulative Food Intake in Grams", "setting": "[1]; S.C. 11.55 μmol/kg, 0-1 Hr", "result": "2.0 ± 1.0", "unit": "Grams"},
      {"measurement": "Cumulative Food Intake in Grams", "setting": "[1]; S.C. 11.55 μmol/kg, 0-2 Hr", "result": "2.0 ± 1.0", "unit": "Grams"},
      {"measurement": "Cumulative Food Intake in Grams", "setting": "[1]; S.C. 11.55 μmol/kg, 0-4 Hr", "result": "2.8 ± 0.9", "unit": "Grams"},
      {"measurement": "Cumulative Food Intake in Grams", "setting": "[1]; S.C. 11.55 μmol/kg, 0-6 Hr", "result": "3.6 ± 1.3", "unit": "Grams"},
      {"measurement": "Cumulative Food Intake in Grams", "setting": "[1]; S.C. 23.09 μmol/kg, 0-1 Hr", "result": "2.0 ± 0.7", "unit": "Grams"},
      {"measurement": "Cumulative Food Intake in Grams", "setting": "[1]; S.C. 23.09 μmol/kg, 0-2 Hr", "result": "2.4 ± 0.8", "unit": "Grams"},
      {"measurement": "Cumulative Food Intake in Grams", "setting": "[1]; S.C. 23.09 μmol/kg, 0-4 Hr", "result": "3.6 ± 1.5", "unit": "Grams"},
      {"measurement": "Cumulative Food Intake in Grams", "setting": "[1]; S.C. 23.09 μmol/kg, 0-6 Hr", "result": "3.6 ± 1.5", "unit": "Grams"},
      {"measurement": "Cumulative Food Intake in Grams", "setting": "[1]; S.C. 46.19 μmol/kg, 0-1 Hr", "result": "2.8 ± 0.6", "unit": "Grams"},
      {"measurement": "Cumulative Food Intake in Grams", "setting": "[1]; S.C. 46.19 μmol/kg, 0-2 Hr", "result": "2.8 ± 0.6", "unit": "Grams"},
      {"measurement": "Cumulative Food Intake in Grams", "setting": "[1]; S.C. 46.19 μmol/kg, 0-4 Hr", "result": "3.2 ± 0.6", "unit": "Grams"},
      {"measurement": "Cumulative Food Intake in Grams", "setting": "[1]; S.C. 46.19 μmol/kg, 0-6 Hr", "result": "3.6 ± 0.8", "unit": "Grams"},
      {"measurement": "Cumulative Food Intake in Grams", "setting": "[1]; S.C. 92.38 μmol/kg, 0-1 Hr", "result": "3.2 ± 0.6", "unit": "Grams"},
      {"measurement": "Cumulative Food Intake in Grams", "setting": "[1]; S.C. 92.38 μmol/kg, 0-2 Hr", "result": "3.2 ± 0.6", "unit": "Grams"},
      {"measurement": "Cumulative Food Intake in Grams", "setting": "[1]; S.C. 92.38 μmol/kg, 0-4 Hr", "result": "4.0 ± 0.7", "unit": "Grams"},
      {"measurement": "Cumulative Food Intake in Grams", "setting": "[1]; S.C. 92.38 μmol/kg, 0-6 Hr", "result": "4.8 ± 1.1", "unit": "Grams"},
      {"measurement": "Ki", "setting": "[2]; read-out: (Ki) nM, δ receptor (Rat Forebrain), Table 6, [^3 H] DADLE, mean of three experiments", "result": 0.58, "unit": "nM"},
      {"measurement": "Ki", "setting": "[2]; read-out: Ki, inhibition of specific [^3 H] DADLE binding, Tables 1 and 2, rat brain membranes, MEAN±S.E.M.", "result": "1.7 ± 0.51", "unit": "nM"},
      {"measurement": "Ki", "setting": "[3]", "result": 3470, "unit": "pM"},
      {"measurement": "conditioned taste aversion (milk intake, preference ratio)", "setting": "[4]", "result": "totally ineffective in producing a conditioned taste aversion"},
      {"measurement": "conditioned taste aversion (milk intake, preference ratio)", "setting": "[4]; listed as Compound XII", "result": "inability of various doses"},
      {"measurement": "general malaise", "setting": "[4]; doses up to 23.09 μmol/kg", "result": "does not appear to cause any general malaise at doses up to 23.09 μmol/kg"},
      {"measurement": "Ki", "setting": "mu-type opioid receptor; (Ki) nM, μ receptor (Rat Forebrain), Table 6, [^3 H] DAGO, mean of three experiments", "result": 0.3, "unit": "nM"},
      {"measurement": "Ki", "setting": "mu-type opioid receptor; Ki, inhibition of specific [^3 H] DAGO binding, Tables 1 and 2, rat brain membranes, MEAN±S.E.M.", "result": "0.21 ± 0.08", "unit": "nM"}
    ]}
  ]
}
